In patent US11464770B2, “Anticancer pharmaceutical composition” (NATIONAL CANCER CENTER, priority 2016, dated 2022):
Read-outs that look alike come from different tables or passages of the source.

Test system: breast cancer cell lines (e.g. MDA-MB-231, SK-BR-3, MDA-MB-468, HCC1954)
Assay: Cell based assay, cell viability (CellTiter-Glo), breast cancer cell lines
Protocol: Commercially available bladder cancer, prostate cancer, lung cancer, breast cancer, blood cancer, pancreatic cancer, colorectal cancer, brain cancer, neuroblastoma, melanoma, liver cancer, cervical carcinoma, ovarian cancer, renal cancer, and papilloma cell lines were each treated with trypsin-EDTA and cultured, followed by being seeded in each well of a 96 well plate. After 24 hours of treatment at constant temperature, the respective cells were treated with the candidate compound so that a final concentration became 0 to 2 μM. The treated cells were additionally cultured for 72 hours, and cell viability was measured by using an ATP detection method (CellTiter-Glo® Luminescent Cell Viability Assay, Promega).

[1] = Breast cancer cell line MDA-MB-231-L/DOX, 72 hours, CellTiter-Glo, read-out: IC50, MDA-MB-231-L/DOX
[2] = Homo sapiens, Breast cancer cell line BT-20, 72 hours, CellTiter-Glo, read-out: IC50, BT-20
[3] = Homo sapiens, Breast cancer cell line HCC1395, 72 hours, CellTiter-Glo, read-out: IC50, HCC1395
[4] = Homo sapiens, Breast cancer cell line HCC1954, 72 hours, CellTiter-Glo, read-out: IC50, HCC1954
[5] = Homo sapiens, Breast cancer cell line JIMT-1, 72 hours, CellTiter-Glo, read-out: IC50, JIMT-1
[6] = Homo sapiens, Breast cancer cell line MCF7, 72 hours, CellTiter-Glo, read-out: IC50, MCF7
[7] = Homo sapiens, Breast cancer cell line MDA-MB-231, 72 hours, CellTiter-Glo, read-out: IC50, MDA-MB-231
[8] = Homo sapiens, Breast cancer cell line MDA-MB-468, 72 hours, CellTiter-Glo, read-out: IC50, MDA-MB-468
[9] = Homo sapiens, Breast cancer cell line SK-BR-3, 72 hours, CellTiter-Glo, read-out: IC50, SK-BR-3
[10] = Homo sapiens, BT-20 cells, 72 hours treatment, CellTiter-Glo cell viability, read-out: IC50, Breast cancer cell line BT-20
[11] = Homo sapiens, HCC1395 cells, 72 hours treatment, CellTiter-Glo cell viability, read-out: IC50, Breast cancer cell line HCC1395
[12] = Homo sapiens, HCC1954 cells, 72 hours treatment, CellTiter-Glo cell viability, read-out: IC50, Breast cancer cell line HCC1954
[13] = Homo sapiens, JIMT-1 cells, 72 hours treatment, CellTiter-Glo cell viability, read-out: IC50, Breast cancer cell line JIMT-1
[14] = Homo sapiens, MCF7 cells, 72 hours treatment, CellTiter-Glo cell viability, read-out: IC50, Breast cancer cell line MCF7
[15] = Homo sapiens, MDA-MB-231 cells, 72 hours treatment, CellTiter-Glo cell viability, read-out: IC50, Breast cancer cell line MDA-MB-231
[16] = Homo sapiens, MDA-MB-468 cells, 72 hours treatment, CellTiter-Glo cell viability, read-out: IC50, Breast cancer cell line MDA-MB-468
[17] = Homo sapiens, SK-BR-3 cells, 72 hours treatment, CellTiter-Glo cell viability, read-out: IC50, Breast cancer cell line SK-BR-3
[18] = MDA-MB-231-L/DOX cells, 72 hours treatment, CellTiter-Glo cell viability, read-out: IC50, Breast cancer cell line MDA-MB-231-L/DOX

| Structure (SMILES) | IC50 [1] | IC50 [2] | IC50 [3] | IC50 [4] | IC50 [5] | IC50 [6] | IC50 [7] | IC50 [8] | IC50 [9] | IC50 [10] | IC50 [11] | IC50 [12] | IC50 [13] | IC50 [14] | IC50 [15] | IC50 [16] | IC50 [17] | IC50 [18] |
| --- | --- | --- | --- | --- | --- | --- | --- | --- | --- | --- | --- | --- | --- | --- | --- | --- | --- | --- |
| CC(=O)c1c([S+]([O-])Cc2ccc(C#N)s2)[nH]c2c(Br)ccc(Cl)c2c1=O (stereo not drawn) [Compound 98, 5-(((3-acetyl-8-bromo-5-chloro-4-oxo-1,4-dihydroquinolin-2-yl)sulfinyl)methyl)thiophene-2-carbonitrile] | – | – | – | – | – | – | – | – | – | > 2 µM | > 10 µM | 1.31 µM | > 10 µM | > 2 µM | 1.86 µM | 1 µM | 1 µM | > 2 µM |
| CSc1c(C(C)=O)c(=O)c2c(Cl)ccc(Br)c2n1C(C)=O [Compound 18, 1,1′-(8-bromo-5-chloro-2-(methylthio)-4-oxoquinoline-1,3(4H)-diyl)bis(ethan-1-one)] | > 2 µM | > 2 µM | > 10 µM | > 2 µM | > 10 µM | > 2 µM | > 2 µM | > 2 µM | > 2 µM | – | – | – | – | – | – | – | – | – |
| COCCNc1ccc(C[S+]([O-])c2[nH]c3c(Br)ccc(Cl)c3c(=O)c2C(C)=O)cn1 (stereo not drawn) [Compound 105, 3-acetyl-8-bromo-5-chloro-2-(((6-((2-methoxyethyl)amino)pyridin-3-yl)methyl)sulfinyl)quinolin-4(1H)-one] | – | – | – | – | – | – | – | – | – | > 2 µM | > 10 µM | > 2 µM | > 10 µM | > 2 µM | > 2 µM | > 2 µM | > 2 µM | > 2 µM |
| CC(=O)c1c([S+]([O-])CC#N)[nH]c2c(Br)ccc(Cl)c2c1=O (stereo not drawn) [Compound 65, 2-((3-acetyl-8-bromo-5-chloro-4-oxo-1,4-dihydroquinolin-2-yl)sulfinyl)acetonitrile] | > 2 µM | > 2 µM | > 10 µM | > 2 µM | > 10 µM | > 2 µM | > 2 µM | > 2 µM | > 2 µM | – | – | – | – | – | – | – | – | – |
| CSc1c(C(C)=O)c(=O)c2c(Cl)ccc(Br)c2n1S(=O)(=O)c1ccc(C(C)(C)C)cc1 [Compound 40, 3-acetyl-8-bromo-1-((4-(tert-butyl)phenyl)sulfonyl)-5-chloro-2-(methylthio)quinolin-4(1H)-one] | > 2 µM | > 2 µM | > 10 µM | > 2 µM | > 10 µM | > 2 µM | > 2 µM | > 2 µM | > 2 µM | – | – | – | – | – | – | – | – | – |
| CC(=O)c1c([S+]([O-])Cc2ccc(C(=O)c3ccccc3)cc2)[nH]c2c(Br)ccc(Cl)c2c1=O (stereo not drawn) [Compound 63, 3-acetyl-2-((4-benzoylbenzyl)sulfinyl)-8-bromo-5-chloroquinolin-4(1H)-one] | > 2 µM | > 2 µM | > 10 µM | > 2 µM | > 10 µM | > 2 µM | > 2 µM | > 2 µM | > 2 µM | – | – | – | – | – | – | – | – | – |
| CC(=O)c1c([S+](C)[O-])n(S(=O)(=O)c2ccc(C(C)(C)C)cc2)c2c(Br)ccc(Cl)c2c1=O (stereo not drawn) [Compound 42, 3-acetyl-8-bromo-1-((4-(tert-butyl)phenyl)sulfonyl)-5-chloro-2-(methylsulfinyl)quinolin-4(1H)-one] | > 2 µM | > 2 µM | > 10 µM | > 2 µM | > 10 µM | > 2 µM | > 2 µM | > 2 µM | 1.57 µM | – | – | – | – | – | – | – | – | – |
| CSc1[nH]c2ccc(F)cc2c(=O)c1C(C)=O [Compound 8, 1-(6-fluoro-4-hydroxy-2-(methylthio)quinolin-3-yl)ethan-1-one] | > 2 µM | > 2 µM | > 10 µM | > 2 µM | > 10 µM | > 2 µM | > 2 µM | > 2 µM | > 2 µM | – | – | – | – | – | – | – | – | – |
| CC(=O)c1c([S+]([O-])Cc2ccccc2)n(C(=O)c2ccc(Br)cc2)c2c(Br)ccc(Cl)c2c1=O (stereo not drawn) [Compound 20, 3-acetyl-2-(benzylsulfinyl)-8-bromo-1-(4-bromobenzoyl)-5-chloroquinolin-4(1H)-one] | > 2 µM | > 2 µM | > 10 µM | > 2 µM | > 10 µM | > 2 µM | > 2 µM | > 2 µM | > 2 µM | – | – | – | – | – | – | – | – | – |
| CC(=O)c1c([S+](C)[O-])n(C(C)=O)c2c(Br)ccc(Cl)c2c1=O (stereo not drawn) [Compound 19, 1,1′-(8-bromo-5-chloro-2-(methylsulfinyl)-4-oxoquinoline-1,3(4H)-diyl)bis(ethan-1-one)] | > 2 µM | > 2 µM | > 10 µM | > 2 µM | > 10 µM | > 2 µM | > 2 µM | > 2 µM | > 2 µM | – | – | – | – | – | – | – | – | – |

The next lines start with the values.

| IC50 [1] | IC50 [2] | IC50 [3] | IC50 [4] | IC50 [5] | IC50 [6] | IC50 [7] | IC50 [8] | IC50 [9] | IC50 [10] | IC50 [11] | IC50 [12] | IC50 [13] | IC50 [14] | IC50 [15] | IC50 [16] | IC50 [17] | IC50 [18] | Structure (SMILES) |
| --- | --- | --- | --- | --- | --- | --- | --- | --- | --- | --- | --- | --- | --- | --- | --- | --- | --- | --- |
| > 2 µM | > 2 µM | > 10 µM | > 2 µM | > 10 µM | > 2 µM | > 2 µM | > 2 µM | > 2 µM | – | – | – | – | – | – | – | – | – | CC(=O)c1c(SCc2ccc([N+](=O)[O-])cc2)[nH]c2c(Br)ccc(Cl)c2c1=O [Compound 32, 3-acetyl-8-bromo-5-chloro-2-((4-nitrobenzyl)thio)quinolin-4(1H)-one] |
| > 2 µM | > 2 µM | > 10 µM | > 2 µM | > 10 µM | > 2 µM | > 2 µM | > 2 µM | 1.09 µM | – | – | – | – | – | – | – | – | – | CC(=O)c1c([S+](C)[O-])[nH]c2c(Br)ccc(Cl)c2c1=O (stereo not drawn) [Compound 1, 3-acetyl-8-bromo-5-chloro-2-(methylsulfinyl)quinolin-4(1H)-one] |
| > 2 µM | > 2 µM | > 10 µM | > 2 µM | > 10 µM | > 2 µM | > 2 µM | > 2 µM | > 2 µM | – | – | – | – | – | – | – | – | – | CC(=O)c1c(Sc2ccccc2)[nH]c2c(Br)ccc(Cl)c2c1=O [Compound 12, 3-acetyl-8-bromo-5-chloro-2-(phenylthio)quinolin-4(1H)-one] |
| – | – | – | – | – | – | – | – | – | > 2 µM | > 10 µM | > 2 µM | > 10 µM | > 2 µM | > 2 µM | > 2 µM | > 2 µM | > 2 µM | CC(=O)c1c([S+]([O-])Cc2ccc(N)nc2)[nH]c2c(Br)ccc(Cl)c2c1=O (stereo not drawn) [Compound 100, 3-acetyl-2-(((6-aminopyridin-3-yl)methyl)sulfinyl)-8-bromo-5-chloroquinolin-4(1H)-one] |
| > 2 µM | > 2 µM | > 10 µM | > 2 µM | > 10 µM | > 2 µM | > 2 µM | > 2 µM | > 2 µM | – | – | – | – | – | – | – | – | – | COCSc1[nH]c2c(Br)ccc(Cl)c2c(=O)c1C(C)=O [Compound 61, 3-acetyl-8-bromo-5-chloro-2-((methoxymethyl)thio)quinolin-4(1H)-one] |
| > 2 µM | > 2 µM | > 10 µM | > 2 µM | > 10 µM | > 2 µM | > 2 µM | > 2 µM | > 2 µM | – | – | – | – | – | – | – | – | – | CC(=O)c1c(SCc2cc(F)cc(F)c2)[nH]c2c(Br)ccc(Cl)c2c1=O [Compound 45, 3-acetyl-8-bromo-5-chloro-2-((3,5-difluorobenzyl)thio)quinolin-4(1H)-one] |
| > 2 µM | > 2 µM | > 10 µM | > 2 µM | > 10 µM | > 2 µM | 1.37 µM | > 2 µM | 1.45 µM | – | – | – | – | – | – | – | – | – | CC(=O)c1c([S+]([O-])Cc2ccc(S(F)(F)(F)(F)F)cc2F)[nH]c2c(Br)ccc(Cl)c2c1=O (stereo not drawn) [Compound 69, 3-acetyl-8-bromo-5-chloro-2-((2-fluoro-4-(pentafluoro-16-sulfanyl)benzyl)sulfinyl)quinolin-4(1H)-one] |
| > 2 µM | > 2 µM | > 10 µM | > 2 µM | > 10 µM | > 2 µM | > 2 µM | > 2 µM | > 2 µM | – | – | – | – | – | – | – | – | – | CC(=O)c1c(SCc2ccc(Cl)cc2)[nH]c2c(Br)ccc(Cl)c2c1=O [Compound 10, 3-acetyl-8-bromo-5-chloro-2-((4-chlorobenzyl)thio)quinolin-4(1H)-one] |
| > 2 µM | > 2 µM | > 10 µM | > 2 µM | > 10 µM | > 2 µM | > 2 µM | > 2 µM | > 2 µM | – | – | – | – | – | – | – | – | – | CC(=O)c1c([S+]([O-])Cc2cccc(I)c2)[nH]c2c(Br)ccc(Cl)c2c1=O (stereo not drawn) [Compound 48, 3-acetyl-8-bromo-5-chloro-2-((3-iodobenzyl)sulfinyl)quinolin-4(1H)-one] |
